Source: patent US20090325959A1 (priority 2008, published 2009)
pKi: −log10 of the molar value. Where two headings read alike, the source gives them in different places.

Experiments:
ROCK1 = biological target: T1, ROCK1 (Homo sapiens, UniProt Q13464); experiment: Rho kinase inhibition assay (IMAP fluorescence polarization), ROCK1; type: biochemical;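 note: kinase reaction run 60 min at room temperature, then phosphorylated substrate captured on IMAP beads for 30 min, with fluorescence polarization read in mP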
T1 construct: purchased Upstate/Chemicon 14-601
Description: (§1) Following the pre-incubation, 10 μM ATP was added to initiate the reaction. After 60 minutes at room temperature, Molecular Devices IMAP™ binding solution was added to bind phosphorylated substrate. After 30 minutes of incubation in the presence of the IMAP™ beads, the fluorescence polarization was read and the ratio was reported as mP. IC50 values for compounds and EC50 values for ATP were calculated using the Prism software from Graphpad.

Akt3 human enzyme = biological target: T2, Akt3 human enzyme (Homo sapiens, UniProt Q9Y243); experiment: Akt3 inhibition assay (IMAP FP); type: biochemical;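 note: kinase reaction run 60 min at room temperature after 30 µM ATP start, phosphorylated substrate captured on IMAP beads and read as fluorescence polarization (mP)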
T2 construct: purchased Upstate Chemicon 14-502
Description: Inhibition of Akt3 and p70S6K activity was determined using the IMAP™ FP Progressive Binding Kit (Molecular Devices product number R8127). […] Following the pre-incubation, 30 μM ATP was added to initiate the reaction. After 60 minutes at RT, Molecular Devices IMAP™ binding solution was added to bind phosphorylated substrate. After 30 minutes of incubation in the presence of the IMAP™ beads the fluorescence polarization was read and the ratio was reported as mP. IC50 results were calculated using the Prism software from Graphpad. The Ki values were determined according to the following formula: Ki=IC50/(1+([ATP Challenge]/EC50 ATP)).

[1] = Rat oral pharmacokinetics (plasma); type: in vivo; details: 20-30 μmol/kg; for Vz_F / AUC(0-t): mean n = 3; for AUC(0-t) / Cmax / Tmax / half-life: male, CD Sprague Dawley; for Cmax: mean n = 3, read-out: Cmax; for Tmax: mean n = 3, read-out: Tmax; for half-life: mean n = 3, read-out: t½ (converted)
ROCK2 = biological target: T3, ROCK2 (Homo sapiens, UniProt O75116); experiment: Rho kinase inhibition assay (IMAP fluorescence polarization), ROCK2; type: biochemical;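 note: kinase reaction started with 10 µM ATP and run 60 min at room temperature, then phosphorylated substrate captured on IMAP beads for 30 min and fluorescence polarization read in mP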
T3 construct: purchased Upstate/Chemicon 14-451
Description: as §1

p70S6K human enzyme = biological target: T4, p70S6K human enzyme (Homo sapiens, UniProt P23443, T412E); experiment: p70S6K inhibition assay (IMAP FP); type: biochemical;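 note: kinase reaction run at room temperature, phosphorylated substrate captured on IMAP beads and read as fluorescence polarization in mP, IC50 then converted to Ki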
T4 construct: purchased Upstate Chemicon 14-486

[2] = tested on: A-10 rat thoracic aorta cells; experiment: PDGF-stimulated smooth muscle cell proliferation assay (BrdU incorporation); type: cell-based; details: A-10 cells, 10 ng/mL PDGF, BrdU incorporation, percent of total challenge-stimulated proliferation; for Percent of PDGF Induced Proliferation at 1 μM Avg: 1 μM test compound; for Percent of PDGF Induced Proliferation at 10 μM Avg: 10 μM test compound;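 for all read-outs here: cells kept in serum-free medium, BrdU allowed to incorporate for 24 h, then incorporated label detected fluorometrically with an anti-BrdU antibody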
[3] = Compound plasma concentrations in unsensitized mice at 15 min post administration; type: in vivo; details: mouse, 15 μmol/kg; mean compound plasma concentration in mice at 15 minutes post oral administration; read-out: Mouse Oral PK
[4] = 30 μM ATP, Ki=IC50/(1+([ATP Challenge]/EC50 ATP)), read-out: Akt3 Ki, Avg
[5] = 10 μM ATP, read-out: ROCK2 Ki, Avg
[6] = 30 μM ATP, Ki=IC50/(1+([ATP Challenge]/EC50 ATP)), read-out: p70S6K Ki, Avg
[7] = average Ki, read-out: p70S6K Ki

T3 sequence (O75116 11-552 limits assumed): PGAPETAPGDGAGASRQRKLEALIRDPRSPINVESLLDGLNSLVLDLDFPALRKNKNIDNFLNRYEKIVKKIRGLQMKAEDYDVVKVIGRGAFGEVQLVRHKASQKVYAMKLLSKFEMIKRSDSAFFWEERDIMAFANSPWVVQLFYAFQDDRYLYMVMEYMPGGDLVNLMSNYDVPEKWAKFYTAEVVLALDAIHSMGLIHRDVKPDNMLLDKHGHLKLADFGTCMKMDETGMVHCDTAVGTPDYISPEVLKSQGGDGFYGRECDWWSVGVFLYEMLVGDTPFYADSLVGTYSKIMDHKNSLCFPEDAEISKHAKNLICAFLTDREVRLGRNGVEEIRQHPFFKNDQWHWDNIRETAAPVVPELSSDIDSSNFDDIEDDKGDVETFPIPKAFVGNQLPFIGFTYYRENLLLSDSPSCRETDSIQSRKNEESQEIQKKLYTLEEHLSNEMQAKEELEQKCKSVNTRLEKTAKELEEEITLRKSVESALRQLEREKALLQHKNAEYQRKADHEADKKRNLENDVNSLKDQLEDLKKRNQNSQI
T1 sequence (Q13464 17-535 limits assumed): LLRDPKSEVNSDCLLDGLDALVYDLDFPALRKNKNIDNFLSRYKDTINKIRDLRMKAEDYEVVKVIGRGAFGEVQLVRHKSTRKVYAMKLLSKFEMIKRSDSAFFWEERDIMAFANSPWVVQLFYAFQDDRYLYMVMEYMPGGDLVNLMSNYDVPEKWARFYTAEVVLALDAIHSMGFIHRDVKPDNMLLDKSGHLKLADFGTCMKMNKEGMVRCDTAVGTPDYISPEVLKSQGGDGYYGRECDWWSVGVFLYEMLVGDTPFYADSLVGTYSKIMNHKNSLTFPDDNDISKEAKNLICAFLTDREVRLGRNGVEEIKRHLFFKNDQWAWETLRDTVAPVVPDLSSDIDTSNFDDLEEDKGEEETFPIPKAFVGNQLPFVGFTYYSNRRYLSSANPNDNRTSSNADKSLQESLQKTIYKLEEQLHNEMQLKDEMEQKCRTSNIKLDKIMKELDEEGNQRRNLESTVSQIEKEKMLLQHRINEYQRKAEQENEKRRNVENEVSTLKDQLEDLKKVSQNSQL
T4 sequence (P23443 1-421 T412E limits assumed): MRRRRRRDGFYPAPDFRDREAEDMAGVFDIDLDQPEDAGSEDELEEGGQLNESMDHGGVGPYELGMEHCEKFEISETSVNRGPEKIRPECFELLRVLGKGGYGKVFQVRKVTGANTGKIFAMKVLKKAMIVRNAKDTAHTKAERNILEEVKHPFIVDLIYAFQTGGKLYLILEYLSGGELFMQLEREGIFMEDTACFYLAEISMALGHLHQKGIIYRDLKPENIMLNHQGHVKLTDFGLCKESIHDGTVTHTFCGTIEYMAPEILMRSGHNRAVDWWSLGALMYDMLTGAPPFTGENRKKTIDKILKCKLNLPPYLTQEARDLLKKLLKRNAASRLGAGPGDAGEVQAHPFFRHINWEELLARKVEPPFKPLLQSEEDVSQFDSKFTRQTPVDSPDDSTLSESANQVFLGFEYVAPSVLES
T2 sequence (Q9Y243 whole entry): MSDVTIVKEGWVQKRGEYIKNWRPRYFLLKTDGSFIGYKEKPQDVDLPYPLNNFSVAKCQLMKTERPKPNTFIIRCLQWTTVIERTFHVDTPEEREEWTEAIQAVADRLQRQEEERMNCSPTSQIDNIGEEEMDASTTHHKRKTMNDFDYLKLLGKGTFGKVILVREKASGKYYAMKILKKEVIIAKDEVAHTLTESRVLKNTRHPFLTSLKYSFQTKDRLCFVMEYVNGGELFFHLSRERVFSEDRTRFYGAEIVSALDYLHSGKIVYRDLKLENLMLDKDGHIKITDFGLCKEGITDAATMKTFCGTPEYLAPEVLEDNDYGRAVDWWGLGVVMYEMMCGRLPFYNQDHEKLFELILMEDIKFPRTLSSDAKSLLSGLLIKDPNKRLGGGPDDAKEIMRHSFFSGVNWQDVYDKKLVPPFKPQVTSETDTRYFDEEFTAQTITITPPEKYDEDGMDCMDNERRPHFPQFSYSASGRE

NC(=O)Cn1ccc2ccc(CN3CCC[C@H](Nc4ccc5[nH]ncc5c4)C3)cc21 [Compound 1.107, (S)-2-(6-((3-(1H-indazol-5-ylamino)piperidin-1-yl)methyl)-1H-indol-1-yl)acetamide]
pKi (ROCK1; Avg, 10 μM ATP): 6.63
pKi (Akt3 human enzyme; [4]): 4.79
Vz_F [1]: 36.3 L/kg
AUC(0-t) [1]: 1.59 µM·h
Cmax [1]: 544 nM
Tmax [1]: 1.67 h
half-life [1]: 1.28 h
pKi (ROCK2; [5]): 7.85
pKi (p70S6K human enzyme; [6]): 5.47

c1cc(C2CC2)ccc1CN1CCC[C@@H](Nc2ccc3[nH]ncc3c2)C1 [Compound 1.206, (R)-N-(1-(4-cyclopropylbenzyl)piperidin-3-yl)-1H-indazol-5-amine]
pKi (ROCK1; Avg, 10 μM ATP): 7.19
pKi (ROCK1; average Ki): 7.19
pKi (Akt3 human enzyme; [4]): 6.28
pKi (Akt3 human enzyme; average Ki, read-out: Akt3 Ki): 6.28
Percent of PDGF Induced Proliferation at 1 μM Avg [2]: 77.5%
Percent of PDGF Induced Proliferation at 10 μM Avg [2]: 51.1%
pKi (ROCK2; [5]): 8.04
pKi (ROCK2; average Ki, read-out: ROCK2 Ki): 8.04
pKi (p70S6K human enzyme; [6]): 6.50
pKi (p70S6K human enzyme; [7]): 6.50
concentration at 15 min [3]: 672 nM

CS(=O)(=O)Nc1cc(CN2CCC[C@H](Nc3ccc4[nH]ncc4c3)C2)ccc1Cl [Compound 1.213, (S)-N-(5-((3-(1H-indazol-5-ylamino)piperidin-1-yl)methyl)-2-chlorophenyl)methanesulfonamide]
pKi (ROCK1; Avg, 10 μM ATP): 6.97
pKi (ROCK1; average Ki): 6.97
pKi (Akt3 human enzyme; [4]): 5.49
pKi (Akt3 human enzyme; average Ki, read-out: Akt3 Ki): 5.49
Percent of PDGF Induced Proliferation at 1 μM Avg [2]: 70.1%
Percent of PDGF Induced Proliferation at 10 μM Avg [2]: 52.3%
pKi (ROCK2; [5]): 8.52
pKi (ROCK2; average Ki, read-out: ROCK2 Ki): 8.52
pKi (p70S6K human enzyme; [6]): 5.68
pKi (p70S6K human enzyme; [7]): 5.68
concentration at 15 min [3]: 396 nM

NS(=O)(=O)c1cccc(CN2CCC[C@H](Nc3ccc4[nH]ncc4c3)C2)c1 [Compound 1.215, (S)-3-((3-(1H-indazol-5-ylamino)piperidin-1-yl)methyl)benzenesulfonamide]
pKi (ROCK1; Avg, 10 μM ATP): 6.99
pKi (ROCK1; average Ki): 6.99
pKi (Akt3 human enzyme; [4]): 4.83
pKi (Akt3 human enzyme; average Ki, read-out: Akt3 Ki): 5.32
Percent of PDGF Induced Proliferation at 1 μM Avg [2]: 70.8%
Percent of PDGF Induced Proliferation at 10 μM Avg [2]: 54.0%
pKi (ROCK2; [5]): 8.46
pKi (ROCK2; average Ki, read-out: ROCK2 Ki): 8.46
pKi (p70S6K human enzyme; [6]): 5.89
pKi (p70S6K human enzyme; [7]): 5.89
concentration at 15 min [3]: 2650 nM

CCCS(=O)(=O)Nc1cc(CN2CCC[C@H](Nc3ccc4[nH]ncc4c3)C2)ccc1C [Compound 1.238, (S)-N-(5-((3-(1H-indazol-5-ylamino)piperidin-1-yl)methyl)-2-methylphenyl)propane-1-sulfonamide]
pKi (ROCK1; Avg, 10 μM ATP): 7.21
pKi (ROCK1; average Ki): 7.21
pKi (Akt3 human enzyme; [4]): 5.38
pKi (Akt3 human enzyme; average Ki, read-out: Akt3 Ki): 5.38
Percent of PDGF Induced Proliferation at 1 μM Avg [2]: 40.7%
Percent of PDGF Induced Proliferation at 10 μM Avg [2]: 48.6%
pKi (ROCK2; [5]): 8.82
pKi (ROCK2; average Ki, read-out: ROCK2 Ki): 8.82
pKi (p70S6K human enzyme; [6]): 5.58
pKi (p70S6K human enzyme; [7]): 5.58
concentration at 15 min [3]: 48 nM

Cc1ccc(S(=O)(=O)Nc2cc(CN3CCC[C@H](Nc4ccc5[nH]ncc5c4)C3)ccc2C)cc1 [Compound 1.239, (S)-N-(5-((3-(1H-indazol-5-ylamino)piperidin-1-yl)methyl)-2-methylphenyl)-4-methylbenzenesulfonamide]
pKi (ROCK1; Avg, 10 μM ATP): 6.55
pKi (ROCK1; average Ki): 6.55
pKi (Akt3 human enzyme; [4]): 4.75
pKi (Akt3 human enzyme; average Ki, read-out: Akt3 Ki): 4.75
Percent of PDGF Induced Proliferation at 1 μM Avg [2]: 41.7%
Percent of PDGF Induced Proliferation at 10 μM Avg [2]: 37.8%
pKi (ROCK2; [5]): 8.20
pKi (ROCK2; average Ki, read-out: ROCK2 Ki): 8.20
pKi (p70S6K human enzyme; [6]): 5.00
pKi (p70S6K human enzyme; [7]): 5.00
concentration at 15 min [3]: 259 nM

CCS(=O)(=O)Nc1cc(CN2CCC[C@H](Nc3ccc4[nH]ncc4c3)C2)ccc1C [Compound 1.253, (S)-N-(5-((3-(1H-indazol-5-ylamino)piperidin-1-yl)methyl)-2-methylphenyl)ethanesulfonamide]
pKi (ROCK1; Avg, 10 μM ATP): 7.22
pKi (ROCK1; average Ki): 7.22
pKi (Akt3 human enzyme; [4]): 5.59
pKi (Akt3 human enzyme; average Ki, read-out: Akt3 Ki): 5.59
Percent of PDGF Induced Proliferation at 1 μM Avg [2]: 44.8%
Percent of PDGF Induced Proliferation at 10 μM Avg [2]: 47.9%
pKi (ROCK2; [5]): 8.77
pKi (ROCK2; average Ki, read-out: ROCK2 Ki): 8.77
pKi (p70S6K human enzyme; [6]): 5.60
pKi (p70S6K human enzyme; [7]): 5.60
concentration at 15 min [3]: 240 nM

C#Cc1ccc(CN2CC[C@@H](Nc3cccc4cnccc34)C2)cc1 [Compound 2.031, (R)-N-(1-(4-ethynylbenzyl)pyrrolidin-3-yl)isoquinolin-5-amine]
pKi (ROCK1; Avg, 10 μM ATP): 7.84
pKi (ROCK1; average Ki): 7.84
pKi (Akt3 human enzyme; [4]): 5.87
pKi (Akt3 human enzyme; average Ki, read-out: Akt3 Ki): 5.87
Percent of PDGF Induced Proliferation at 1 μM Avg [2]: 90.3%
Percent of PDGF Induced Proliferation at 10 μM Avg [2]: 52.6%
pKi (ROCK2; [5]): 8.28
pKi (ROCK2; average Ki, read-out: ROCK2 Ki): 8.28
pKi (p70S6K human enzyme; [6]): 6.49
pKi (p70S6K human enzyme; [7]): 6.49
concentration at 15 min [3]: 1430 nM

CCS(=O)(=O)Nc1cccc(CN2CC[C@@H](Nc3cccc4cnccc34)C2)c1 [Compound 2.041, (R)-N-(3-((3-(isoquinolin-5-ylamino)pyrrolidin-1-yl)methyl)phenyl)ethanesulfonamide]
pKi (ROCK1; Avg, 10 μM ATP): 7.51
pKi (ROCK1; average Ki): 7.51
pKi (Akt3 human enzyme; [4]): 5.46
pKi (Akt3 human enzyme; average Ki, read-out: Akt3 Ki): 5.46
Percent of PDGF Induced Proliferation at 1 μM Avg [2]: 81.8%
Percent of PDGF Induced Proliferation at 10 μM Avg [2]: 61.5%
pKi (ROCK2; [5]): 8.02
pKi (ROCK2; average Ki, read-out: ROCK2 Ki): 8.02
pKi (p70S6K human enzyme; [6]): 5.68
pKi (p70S6K human enzyme; [7]): 5.68
concentration at 15 min [3]: 987 nM

Cc1ccc(CN2CCC[C@H](Nc3cccc4cnccc34)C2)cc1 [Compound 2.045, (S)-N-(1-(4-methylbenzyl)piperidin-3-yl)isoquinolin-5-amine]
pKi (ROCK1; Avg, 10 μM ATP): 7.04
Vz_F [1]: 226 L/kg
AUC(0-t) [1]: 0.456 µM·h
Cmax [1]: 223 nM
Tmax [1]: 0.67 h
half-life [1]: 1.59 h
pKi (ROCK2; [5]): 7.06

c1ccc(CN2CC[C@@H](Nc3cccc4cnccc34)C2)cc1 [Compound 2.046, (R)-N-(1-benzylpyrrolidin-3-yl)isoquinolin-5-amine]
pKi (ROCK1; Avg, 10 μM ATP): 7.78
pKi (ROCK1; average Ki): 7.78
pKi (Akt3 human enzyme; [4]): 5.70
pKi (Akt3 human enzyme; average Ki, read-out: Akt3 Ki): 5.70
Percent of PDGF Induced Proliferation at 1 μM Avg [2]: 57.4%
Percent of PDGF Induced Proliferation at 10 μM Avg [2]: 32.1%
pKi (ROCK2; [5]): 8.25
pKi (ROCK2; average Ki, read-out: ROCK2 Ki): 8.25
pKi (p70S6K human enzyme; [6]): 6.12
pKi (p70S6K human enzyme; [7]): 6.12
concentration at 15 min [3]: 488 nM

COc1ccc(CN2CC[C@@H](Nc3cccc4cnccc34)C2)cc1 [Compound 2.047, (R)-N-(1-(4-methoxybenzyl)pyrrolidin-3-yl)isoquinolin-5-amine]
pKi (ROCK1; Avg, 10 μM ATP): 7.58
pKi (ROCK1; average Ki): 7.58
pKi (Akt3 human enzyme; [4]): 5.71
pKi (Akt3 human enzyme; average Ki, read-out: Akt3 Ki): 5.71
Percent of PDGF Induced Proliferation at 1 μM Avg [2]: 65.3%
Percent of PDGF Induced Proliferation at 10 μM Avg [2]: 53.8%
pKi (ROCK2; [5]): 8.15
pKi (ROCK2; average Ki, read-out: ROCK2 Ki): 8.15
pKi (p70S6K human enzyme; [6]): 6.36
pKi (p70S6K human enzyme; [7]): 6.36
concentration at 15 min [3]: 3 nM

CCS(=O)(=O)Nc1cc(CN2CC[C@@H](Nc3cccc4cnccc34)C2)ccc1C [Compound 2.054, (R)-N-(5-((3-(isoquinolin-5-ylamino)pyrrolidin-1-yl)methyl)-2-methylphenyl)ethanesulfonamide]
pKi (ROCK1; Avg, 10 μM ATP): 7.77
pKi (ROCK1; average Ki): 7.77
pKi (Akt3 human enzyme; [4]): 6.38
pKi (Akt3 human enzyme; average Ki, read-out: Akt3 Ki): 6.38
Percent of PDGF Induced Proliferation at 1 μM Avg [2]: 68.2%
Percent of PDGF Induced Proliferation at 10 μM Avg [2]: 84.6%
pKi (ROCK2; [5]): 8.43
pKi (ROCK2; average Ki, read-out: ROCK2 Ki): 8.43
pKi (p70S6K human enzyme; [6]): 6.36
pKi (p70S6K human enzyme; [7]): 6.36
concentration at 15 min [3]: 765 nM
